Laboratory results: US4160026A (priority 1976, dated 1979)

Legend:
cell-mediated immunity = assay: Cell-mediated immunity, delayed hypersensitivity (picryl chloride) in Sarcoma 180-inoculated mice; type: in vivo, ICR-JCL strain mice; conditions: 75 mg/kg
Experimental: The tests were carried out by the following procedure: groups of ICR-JCL strain mice (six male mice per group, average body weight 31.9±3 g.) were inoculated with the ascites tumor "Sarcoma 180" (10^6 cells). 24 Hours after the inoculation of the tumor cells, each of the drug samples to be tested was subcutaneously administered and a known anti-tumor agent (cyclophosphamide) was intraperitoneally administered to the inoculated mice. Two days after the inoculation, an ethanolic solution of 5% picryl chloride was applied onto the hair-shaved abdomen of the mice to establish the sensitization. Subsequently, each drug sample under test was subcutaneously administered once a day for the successive four days. 4 Days after the inoculation, cyclophosphamide was again administered. Nine days after the inoculation, a solution of 1% picryl chloride in olive oil was challenged onto the two sides of both ears of the mice to establish the secondary sensitization. 24 Hours after the secondary sensitization, the degree (%) of increase in thickness of the ears was calculated for the test mice. The extent of the swelling which serves as a measure of stimulating cell-mediated immunity involved can be evaluated from the percentage increase in the ear thickness.

Sarcoma 180 = assay: Solid tumor of Sarcoma 180, treatment after inoculation; type: in vivo, ICR-strain mice; conditions: 2 mg/kg, i.p., 5 days after inoculation
Experimental: In a separate experiment, male ICR-strain mice (five in each group with an average body weight of 20±2 g) were inoculated in the flank with 7×10^6 live tumor cells of Sarcoma 180 in 0.05 ml. After 24 hours, each group of mice was treated by intraperitoneal injection of 0.1 ml. of saline or sample dissolved in saline for 5 consecutive days. Seven days after the inoculation, all mice were sacrificed and the primary subcutaneous tumor excised and weighed.
In the above table, degree (%) of inhibition to the growth of tumor was calculated according to the following equation: [formula]

Solubility = type: physicochemical
various bacteria = assay: Antibacterial activity with combined use of maltose or maltodextrin; type: cell-based; conditions: under the above-mentioned testing conditions
Experimental: These paper discs were placed on an upper plate layers of the known mycin-assay incubation medium comprising 0.5% peptone, 0.3% meat extract and 1.5% agar (pH 6) which contained the test microorganism to be incubated therein and which was laid over the lower layer of agar medium in the assaying dish. The incubation was made at a temperature of 37° C. overnight, and subsequently the diameter of the inhibition zones formed around the paper discs was measured. […] These tests were repeated in the same manner as above but with additional incorporation of 1.25 mg/cc of maltotriose into the upper plate layer of the mycin-assay incubation medium.

Solubility (Solubility; in acetone) | Solubility (Solubility; in ethanol) | Solubility (Solubility; in methanol) | Solubility (Solubility; in water) | Compound | other results
– | – | – | – | O=P1(N(CCCl)CCCl)NCCCO1 (stereo not shown) [Cyclophosphamide, N,N-bis (2-chloroethyl)tetrahydro-2H-1,3,2-oxazophosphorin-2-amine-2-oxide] | Degree of increase in ear thickness (cell-mediated immunity): 4.0 ± 2.60 ×10^-3 cm; percentage increase (cell-mediated immunity; untreated = 100.0): 51.9%
– | – | – | – | CO[C@@]12[C@H](COC(N)=O)C3=C(C(=O)C(C)=C(N)C3=O)N1C[C@@H]1N[C@@H]12 [Mitomycin C, mitomycin C] | Degree (%) of inhibition to tumor growth (Sarcoma 180): 45%; Tumor weight (Sarcoma 180): 0.43 g
not soluble | not soluble | sparingly soluble | readily soluble | OC[C@H]1O[C@H](O[C@H]2[C@H](O)[C@@H](O)[C@@H](O[C@H]3[C@H](O)[C@@H](O)[C@@H](O[C@H]4[C@H](O)[C@@H](O)[C@@H](O[C@H]5[C@H](O)[C@@H](O)[C@@H](O[C@H]6[C@H](O)[C@@H](O)C(O)O[C@@H]6CO)O[C@@H]5CO)O[C@@H]4CO)O[C@@H]3CO)O[C@@H]2CO)[C@H](O)[C@@H](O)[C@@H]1O (stereo partly shown) [maltohexaose] | –
not soluble | not soluble | sparingly soluble | readily soluble | OC[C@H]1O[C@H](O[C@H]2[C@H](O)[C@@H](O)[C@@H](O[C@H]3[C@H](O)[C@@H](O)[C@@H](O[C@H]4[C@H](O)[C@@H](O)[C@@H](O[C@H]5[C@H](O)[C@@H](O)C(O)O[C@@H]5CO)O[C@@H]4CO)O[C@@H]3CO)O[C@@H]2CO)[C@H](O)[C@@H](O)[C@@H]1O (stereo partly shown) [maltopentaose] | –
– | – | – | – | OC[C@H]1O[C@H](O[C@H]2[C@H](O)[C@@H](O)[C@@H](O[C@H]3[C@H](O)[C@@H](O)C(O)O[C@@H]3CO)O[C@@H]2CO)[C@H](O)[C@@H](O)[C@@H]1O (stereo partly shown) [maltotriose] | Antibacterial activity of maltodextrins alone (various bacteria): do not exhibit any antibacterial activity
